Consider ten compounds from publication PMC5338256, “D-form KLKLLLLLKLK-NH2 peptide exerts higher antimicrobial properties than its L-form counterpart via an association with bacterial cell wall components” (Scientific Reports, 2017).

Data set [1] has as its system S. aureus. The class given is cell-based, Staphylococcus aureus (NBRC100910). As to the method:
(§1) S. aureus (NBRC100910), E. coli W3110 (NBRC12713), E. hirae (NBRC3181), C. albicans (NBRC1385), and S. Typhimurium 14028s (ATCC14028)[2] were used in this study. S. aureus, E. coli, and S. Typhimurium were grown at 37 °C with aeration in Muller-Hinton II medium (BD Biosciences). E. hirae was grown at 37 °C in LB medium (Nacalai Tesque, Inc.) containing 0.5% glucose (w/v). C. albicans was grown at room temperature with aeration in YM medium (BD Biosciences). All experiments were conducted using bacterial cells and C. albicans in the logarithmic-phase of growth.
(§2) Bacterial suspensions in Muller-Hinton II medium were adjusted to an optical density of 550 nm (OD550) = 0.0011. C. albicans suspensions in YM medium were adjusted to OD650 = 0.033. Peptides were serially diluted in 10 mM phosphate buffer (pH 6.0) containing 130 mM sodium chloride, 0.2% bovine serum albumin, and 2.56% dimethyl sulfoxide. The peptide solution (100 μl) was mixed with 100 μl of bacteria or C. albicans suspensions. Bacterial cultures were incubated for one day at 37 °C. C. albicans cultures were incubated for two days at room temperature. Cell growth was monitored optically and the MIC was determined.

The subject of data set [2] is S. aureus. Description: Inhibition of antimicrobial activity by bacterial cell wall components. The class given is cell-based, Staphylococcus aureus. To be noted: Kn2–7 6.25 μg/ml, Mastoparan M 8 μg/ml, 10 min. The method, then: (§3) Bacteria and C. albicans were suspended in growth medium. Peptides suspended in dimethyl sulfoxide were serially diluted in 10 mM phosphate buffer (pH 6.0) containing 130 mM sodium chloride, 0.2% bovine serum albumin as described previously. In order to examine the effects of bovine serum albumin on the assay, 10 mM phosphate buffer (pH 6.0) containing 130 mM sodium chloride, was used for the dilution of peptides. Peptide solution (500 μl) was added to 500 μl of bacteria suspensions and then the mixture was incubated at 37 °C for 10 min. In order to examine the effects of culture medium components on the assay, bacteria suspension was prepared with 10 mM phosphate buffer (pH 6.0) containing 130 mM sodium chloride. Alternatively, 500 μl of peptide solution was added to 500 μl of C. albicans suspensions and the mixture was incubated at room temperature for 10 min. The inhibitory effects of the bacterial components were analyzed by incubating 450 μl of S. aureus suspension with 500 μl of peptide solution plus 50 μl of inhibitor samples at 37 °C for 10 min. Then, the peptide/bacteria suspensions were diluted and plated onto LB agar, LB agar containing 0.5% glucose, or YM agar. After cultivation of the plates, colony forming units (CFU) in the peptide/bacteria suspension were calculated based on the average of triplicate plates.
Peptidoglycan (120 μg) prepared from S. aureus was added to 1 mg/ml of lysozyme in phosphate buffered saline (150 μl)[33]. Peptidoglycan without lysozyme and lysozyme without peptidoglycan were also prepared as controls. Samples were incubated overnight at 37 °C, and then incubated at 100 °C for 15 min to inactivate lysozyme. For heat-inactivation of peptidoglycan, 600 μg of peptidoglycan suspended in water (300 μl) was incubated at 100 °C for 15 min. The samples were sonicated for 10 sec at setting 1 using a Branson sonifier model S-150D. These samples were used as inhibitor samples for antimicrobial activity assays.

Data set [3] concerns S. aureus. Description: Assay for membrane permeability (ethidium influx). To be noted: 20 μg/ml peptide, fluorescence for 180 sec, 10 mM phosphate buffer pH 6.0, 130 mM NaCl, 0.2% BSA. In kind it is cell-based, Staphylococcus aureus. As to the method:
To examine membrane permeability, ethidium influx rates were examined as previously described. S. aureus suspension cultures were adjusted to an OD600 of 0.4 in 10 mM phosphate buffer (pH 6.0) containing 130 mM sodium chloride and 0.2% bovine serum albumin. Then, peptide in dimethyl sulfoxide (8 μl) or dimethyl sulfoxide alone (8 μl) was added to 2 ml of S. aureus suspensions. At 30 sec after the addition of peptide, ethidium bromide was added to a final concentration of 5 μg/ml, and fluorescence of the ethidium-nucleic acid complex was monitored using a RF-5300PC spectrofluorometer (Shimadzu). Excitation and emission wavelengths were 545 nm with 5 nm slits and 600 nm with 10 nm slits, respectively.

The subject of data set [4] is S. aureus. The data set is described as follows: Assay for antimicrobial activity (10 min exposure, CFU). The note with it: 10 min at 37 °C, standard assay with culture medium and 0.2% BSA, triplicate plates. In kind it is cell-based, Staphylococcus aureus (NBRC100910). The method, then:
as §1, §3

The test system of a further data set is C. albicans. In kind it is cell-based, Candida albicans (NBRC1385). The method, then: as §1, §2
Data set [5] concerns S. aureus. Description: Peptide degradation in the S. aureus assay mixture (SDS-PAGE, Ruby stain). The class given is in vitro ADME, Staphylococcus aureus. The note with it: 15 μg/ml peptide with S. aureus, 10 min at 37 °C, antimicrobial assay mixture, Ruby protein gel stain.
The next data set has as its system E. coli. The class given is cell-based, Escherichia coli W3110 (NBRC12713). To be noted: pH 6. As to the method:
as §1, §2

The test system of a further data set is Gram-positive bacteria. To be noted: cited from earlier work. An excerpt:
Sapecin B is an antimicrobial peptide that was originally isolated from the culture medium of an embryonic cell line, NIH-Sape-4, derived from Sarcophaga peregrine (flesh fly). […] Two other related proteins, sapecin and sapecin C, were also isolated from culture medium of NIH-Sape-4[13][14][15]. Sapecin B has significant sequence similarity to a scorpion venom toxin, charybdotoxin[13][16]. Structural comparison of sapecin B and charybdotoxin identified the undecapeptide RSLCLLHCRLK-NH2, which corresponds to amino acid residues 7 to 1 ...

Where [6] appears, read: S. aureus, Muller-Hinton II medium mixed 1:1 with peptide in 10 mM phosphate buffer pH 6.0, 130 mM NaCl, 0.2% BSA, 2.56% DMSO, one day at 37 °C, growth monitored optically.

Values after ≈ are worked out from the molar mass of the structure shown. Where two headings read alike, the source gives them in different places. Non-standard residues stand in square brackets, D forms with d. Residues, ends and D or L forms follow the SMILES beside them. No end group written: not given here.

One may read the MIC as the least concentration at which growth counts as inhibited. A high value points to a less susceptible organism. Regarding `CC[C@@H](C)[C@@H](NC(=O)[C@H](N)Cc1ccccc1)C(=O)N[C@H](CCCCN)C(=O)N[C@H](CCCNC(=N)N)C(=O)N[C@@H](C(=O)N[C@H](C)C(=O)N[C@H](CCCNC(=N)N)C(=O)N[C@H](CC(C)C)C(=O)N[C@H](CC(C)C)C(=O)N[C@H](CCCNC(=N)N)C(=O)N[C@H](CCCCN)C(=O)N[C@@H](C(=O)N[C@H](Cc1ccccc1)C(N)=O)[C@H](C)CC)[C@H](C)CC` [D-form FIKRIARLLRKIF-NH2, reference compound] (H-[dF][dI][dK][dR][dI][dA][dR][dL][dL][dR][dK][dI][dF]-NH2; N-terminus assumed), the MIC in the data set with S. aureus [1] (setting [6]) is 4 µg/mL (≈ 2.39 µM). Further, in the data set with S. aureus [2], the “inhibitory effect of S. aureus peptidoglycan on the antimicrobial activity” value was “significant inhibitory effects”.

`CC[C@@H](C)[C@@H](NC(=O)CNC(=O)[C@@H](CO)NC(=O)[C@@H](CC(C)C)NC(=O)[C@H](NC(=O)[C@@H](CCCNC(=N)N)NC(=O)CNC(=O)[C@H](NC(=O)[C@@H](CC(C)C)NC(=O)[C@H]1CCCN1C(=O)[C@@H](CC(C)C)NC(=O)[C@H](N)Cc1ccccc1)[C@H](C)CC)C(C)C)C(=O)N[C@H](CC(C)C)C(N)=O` [D-form FLPLIGRVLSGIL-NH2, reference compound] (H-[dF][dL][dP][dL][dI]G[dR][dV][dL][dS]G[dI][dL]-NH2; N-terminus assumed) displayed a minimal inhibitory concentration (MIC) in the data set on S. aureus [1] (setting [6]) of 8 µg/mL (≈ 5.73 µM).

In turn, `CC[C@@H](C)[C@@H](N)C(=O)N[C@H](CC(N)=O)C(=O)N[C@H](CC(C)C)C(=O)N[C@H](CCCCN)C(=O)N[C@H](C)C(=O)N[C@@H](C(=O)N[C@H](C)C(=O)N[C@H](C)C(=O)N[C@H](CC(C)C)C(=O)N[C@H](C)C(=O)N[C@H](CCCCN)C(=O)N[C@H](CCCCN)C(=O)N[C@H](CC(C)C)C(=O)N[C@H](CC(C)C)C(N)=O)[C@H](C)CC` [D-form INLKAIAALAKKLL-NH2, reference compound] (H-[dI][dN][dL][dK][dA][dI][dA][dA][dL][dA][dK][dK][dL][dL]-NH2) came in with a minimal inhibitory concentration (MIC) against S. aureus [1] (setting [6]) of 16 µg/mL (≈ 10.8 µM). Also, the “ethidium bromide influx rate” value with S. aureus [3] is “increased ethidium bromide influx rates to a similar extent”. The “inhibitory effect of S. aureus peptidoglycan on the antimicrobial activity” value in the data set on S. aureus [2] was “weak inhibitory effects”.

Turning to `CC(C)C[C@@H](NC(=O)[C@H](N)CCCCN)C(=O)N[C@H](CCCCN)C(=O)N[C@H](CC(C)C)C(=O)N[C@H](CC(C)C)C(=O)N[C@H](CC(C)C)C(=O)N[C@H](CCCCN)C(=O)N[C@H](CC(C)C)C(=O)N[C@H](CCCCN)C(N)=O` [D-form KLKLLLKLK-NH2] (H-[dK][dL][dK][dL][dL][dL][dK][dL][dK]-NH2; N-terminus assumed), the “fold by which the MIC of the D-form is lower than that of the L-form” value with S. aureus [1] (S. aureus) is recorded as “more than 32 fold”. The MIC against S. aureus [1] (setting [6]) was 4 µg/mL (≈ 3.65 µM). Moreover, in the data set on S. aureus [4], the “antimicrobial activity (CFU), D-form compared with L-form” value is given as “higher”.

The compound “FIKRIARLLRKIF-NH2 [L-form FIKRIARLLRKIF-NH2, reference compound]” had an MIC in the data set with S. aureus [1] (setting [6]) of 4 µg/mL.

As to “FLPLIGRVLSGIL-NH2 [L-form FLPLIGRVLSGIL-NH2, reference compound]”, the MIC in the data set with S. aureus [1] (setting [6]) stood at 8 µg/mL.

In the data set on S. aureus [1] (setting [6]), “INLKAIAALAKKLL-NH2 [L-form INLKAIAALAKKLL-NH2, reference compound]” yielded an MIC of 16 µg/mL.

In turn, KLKLLLKLK-NH2 [L-form KLKLLLKLK-NH2] had an MIC against S. aureus [1] (setting [6]) of over 128 µg/mL.

For the compound “KLKLLLLLKLK-NH2 [L-form KLKLLLLLKLK-NH2]”, the MIC against S. aureus [1] (pH 6) was 16 µg/mL; with C. albicans, 64 µg/mL; in the data set on E. coli it was 16 µg/mL. For the same compound, the “specific degradation of the peptide” value in the data set with S. aureus [5] is “specific degradation of the L-form peptide was not observed”.

Consider “RSLCLLHCRLK-NH2 [undecapeptide, amino acid residues 7 to 17 of sapecin B with C-terminal amidation]”, for which the antimicrobial activity entry in the data set on Gram-positive bacteria was “significant antimicrobial activity”.
